Where “and” joins values, the source holds several entries; their conditions need not be identical. Equal entries are not always repeated.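 Following 48 hours of exposure in 96-well plates, responses at five concentrations were used to interpolate endpoints linearly. Here, GI50 denotes the concentration required for 50% inhibition of growth. Definition used: TGI = concentration required for complete inhibition of growth.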
Tests used:
Assay in all cases: NCI-60 cell line screen, 48 h
KM12 colon = system: KM12 colon
MOLT-4 leukemia = system: MOLT-4 leukemia
HOP-62 NSCLC = system: HOP-62 NSCLC
MDA-MB-231 breast = system: MDA-MB-231 breast
SK-MEL-2 melanoma = system: SK-MEL-2 melanoma
HCC-2998 colon = system: HCC-2998 colon
786-0 renal = system: 786-0 renal
CAKI-1 renal = system: CAKI-1 renal

| Structure (SMILES) | GI50 (KM12 colon) | TGI (KM12 colon) [µM] | GI50 (MOLT-4 leukemia) | TGI (MOLT-4 leukemia) | TGI (HOP-62 NSCLC) [µM] | GI50 (MDA-MB-231 breast) | TGI (MDA-MB-231 breast) [µM] | TGI (SK-MEL-2 melanoma) [µM] | GI50 (HCC-2998 colon) | TGI (HCC-2998 colon) | GI50 (786-0 renal) | TGI (786-0 renal) | TGI (CAKI-1 renal) [µM] | GI50 (HOP-62 NSCLC) [µM] | GI50 (SK-MEL-2 melanoma) [µM] | GI50 (CAKI-1 renal) [µM] |
| --- | --- | --- | --- | --- | --- | --- | --- | --- | --- | --- | --- | --- | --- | --- | --- | --- |
| COc1ccc(/C=C/C(=O)OC2CC34CCNC35CC(OC5(OC)C2OC)c2ccc(OC)c(O)c24)cc1O (stereo unspecified) | 31.6 µM and > 100 µM | > 100 | 22.4 µM and > 100 µM | 93.1 µM and > 100 µM | > 100 | 49.7 µM and > 100 µM | > 100 | > 100 | 30.6 µM and > 100 µM | 94.2 µM and > 100 µM | 22.2 µM and > 100 µM | 52.3 µM and > 100 µM | > 100 | – | – | – |
| c1ccc(C2=Nc3ccccc3N3CNN=C23)cc1 | > 100 µM | > 100 | 24.2 µM | > 100 µM | > 100 | 40.7 µM | > 100 | > 100 | > 100 µM | > 100 µM | > 100 µM | > 100 µM | > 100 | > 100 | > 100 | > 100 |
| NC(=O)NC(=O)Nc1ccc(Br)cc1 | – | > 32.8 | – | > 100 µM | > 30.8 | – | > 42.1 | > 20.7 | – | > 31.9 µM | – | > 100 µM | > 35.1 | – | – | – |
| CC[C@]1(O)CC2CN(CCc3c([nH]c4ccccc34)C(C(=O)OC)(c3cc4c(cc3OC)N(C=O)[C@H]3[C@@](O)(C(=O)OC)[C@H](OC(C)=O)[C@]5(CC)[C@@H]6C[C@@H]6CN6CC[C@]43[C@@H]65)C2)C1 (stereo partly specified) | < 0.00325 µM | 0.00386 | < 0.00325 µM | 0.339 µM | > 13.7 | < 0.00325 µM | 0.191 | 3.67 | < 0.00325 µM | 9.23 µM | < 0.00325 µM | 6.65 µM | 12.2 | < 0.00325 | < 0.00325 | 0.0324 |
| CC(C)(Oc1cccc(N2CCC[C@@H](C(=O)N(Cc3ccc(-c4cn[nH]c4)cc3)C3CC3)C2)c1)C(=O)N1CCNCC1 | 14.8 µM | 28.8 | 12.1 µM | 55.8 µM | 28.5 | 14.8 µM | 29.7 | 28 | 3.06 µM | 10.7 µM | 11.7 µM | 25 µM | 21.9 | 13.3 | 14.3 | 8.11 |
| Oc1ccc(/C=N/NC(=S)Nc2ccccc2)nc1 | 1.91 µM | > 100 | 3.26 µM | > 100 µM | 7.29 | 0.729 µM | > 100 | 44.1 | 4.09 µM | > 100 µM | 1.84 µM | 12.4 µM | > 100 | 0.766 | 1.54 | 0.667 |
| Cc1cc2c3c(nc4ccccc42)C(=O)c2cccnc2-c3n1 | 0.142 µM | 0.529 | 0.47 µM | 5.69 µM | 2.23 | 0.644 µM | 5.56 | 3.82 | 0.311 µM | 1.26 µM | 0.148 µM | 0.823 µM | 2.67 | 0.316 | 1.48 | 0.404 |
| O=C(NNC1=NS(=O)(=O)c2ccccc2N1c1ccccc1)c1cnccn1 | > 100 µM | > 100 | > 100 µM | > 100 µM | > 100 | > 100 µM | > 100 | > 100 | > 100 µM | > 100 µM | > 100 µM | > 100 µM | > 100 | > 100 | > 100 | > 100 |
| Cn1cc(Nc2nccc(-c3ccc4c(c3)CN(C3COC3)CC[C@H]4NC(=O)c3cn(C(C)(C)C)nn3)n2)cn1 | 72.6 µM | > 100 | 89.7 µM | > 100 µM | > 100 | 77.3 µM | > 100 | > 100 | > 100 µM | > 100 µM | 50.5 µM | > 100 µM | > 100 | > 100 | > 100 | 37.7 |
| Cc1ccc(/C=C(/C#N)n2nnc3cccc(F)c32)cc1 | 0.332 µM | 5.16 | 0.394 µM | > 100 µM | > 100 | 0.807 µM | 9.66 | 19 | 1.11 µM | 5.15 µM | 0.384 µM | 14.1 µM | 25.3 | 1.37 | 0.522 | 0.327 |
| O=C(Nc1nc2ccc(OC(F)(F)F)cc2s1)c1ccc(F)cc1 | 2.69 µM | > 100 | 3.08 µM | 84.9 µM | 26.9 | 3.3 µM | 18.9 | 7.39 | 3.91 µM | > 100 µM | 3.47 µM | > 100 µM | 7.26 | 3.81 | 3.08 | 2.29 |
| COc1cc(C(=O)/C=C/c2cccnc2Nc2ccc(Cl)cc2)cc(OC)c1OC | 1.83 µM | 3.55 | 2.55 µM | 10.5 µM | 3.13 | 1.49 µM | 3.12 | 4.11 | 1.52 µM | 2.89 µM | 1.46 µM | 2.78 µM | 4.04 | 1.65 | 2.01 | 1.75 |

Reference: PubChem BioAssay (NCI)
